What was measured:
Experiment in all cases: relative viability (nuclei count vs DMSO), 5 days (fraction); higher = more cells survive
[1] = compound: OCc1c[nH]c2ccccc12 [Indole-3-carbinol] + CS(=O)(=O)N1CCN(Cc2cc3nc(-c4cccc5[nH]ncc45)nc(N4CCOCC4)c3s2)CC1 [Pictilisib] (partner 1 µM)
Outline: (§1)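 Relative viability is defined as nuclei in treated wells over nuclei in vehicle wells. Duplicate plates were run and medians reported. Lung cancer cell lines in 1536-well plates were dosed by pin tool one day after seeding, with one drug or with a fixed anchor-drug dose plus five library-drug doses (not always all listed) in √10 steps, and nuclei were counted after 5 days.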

[2] = compound: OCc1c[nH]c2ccccc12 [Indole-3-carbinol] + CC(=O)Nc1cccc(-n2c(=O)n(C3CC3)c(=O)c3c(Nc4ccc(I)cc4F)n(C)c(=O)c(C)c32)c1 [Trametinib] (partner 0.02 µM)
Outline: as §1

[3] = compound: OCc1c[nH]c2ccccc12 [Indole-3-carbinol] + NC(=O)Nc1cc(-c2cccc(F)c2)sc1C(=O)N[C@H]1CCCNC1 [AZD7762] (partner 0.2 µM)
Outline: as §1

[4] = compound: OCc1c[nH]c2ccccc12 [Indole-3-carbinol] + O=C(c1cc(Cc2n[nH]c(=O)c3ccccc23)ccc1F)N1CCN(C(=O)C2CC2)CC1 [Olaparib] (partner 8 µM)
Outline: as §1

[5] = compound: OCc1c[nH]c2ccccc12 [Indole-3-carbinol] + C[C@@H](Oc1cc(-c2cnn(C3CCNCC3)c2)cnc1N)c1c(Cl)ccc(F)c1Cl [Crizotinib] (partner 1 µM)
Outline: as §1

Cell Line	relative viability ([1]; first compound 0.253 µM)	relative viability ([1]; first compound 0.8 µM)	relative viability ([1]; first compound 2.53 µM)	relative viability ([1]; first compound 8 µM)	relative viability ([2]; first compound 0.253 µM)	relative viability ([2]; first compound 0.8 µM)	relative viability ([2]; first compound 2.53 µM)	relative viability ([2]; first compound 8 µM)	relative viability ([3]; first compound 0.253 µM)	relative viability ([3]; first compound 0.8 µM)	relative viability ([3]; first compound 2.53 µM)	relative viability ([3]; first compound 8 µM)	relative viability ([4]; first compound 0.253 µM)	relative viability ([4]; first compound 0.8 µM)	relative viability ([4]; first compound 2.53 µM)	relative viability ([4]; first compound 8 µM)	relative viability ([5]; first compound 0.253 µM)	relative viability ([5]; first compound 0.8 µM)	relative viability ([5]; first compound 2.53 µM)	relative viability ([5]; first compound 8 µM)
ChaGo-K-1	0.524	0.891	0.666	0.649	0.91	0.905	0.832	0.885	1	0.853	0.932	0.869	0.427	0.45	0.415	0.387	1.21	1.04	1.18	1.1
NCI-H2342					0.824	0.931	0.866	0.764	0.576	0.455	0.456	0.453	0.452	0.447	0.508	0.512				
SK-MES-1	0.416	0.356	0.321	0.4	0.539	0.627	0.56	0.54					0.758	0.888	0.632	0.615	0.996	1.07	1.03	0.965
LCLC-97TM1	0.139	0.224	0.177	0.223	0.215	0.215	0.178	0.23	0.39	0.297	0.236	0.234	0.38	0.552	0.489	0.265	0.368	0.534	0.389	0.442
NCI-H2170	0.329	0.308	0.322	0.311	0.882	0.859	0.892	0.869	1.01	0.898	0.89	0.894	0.633	0.617	0.597	0.586	1.26	1.3	1.15	1.03
ABC-1	0.755	0.786	0.782	0.66					0.72	0.974	0.618	0.833	0.855	0.97	0.87	0.761	0.973	0.925	1.39	1.33
COR-L 105	0.371	0.374	0.432	0.382	0.407	0.405	0.473	0.428					0.642	0.655	0.713	0.685	0.93	0.681	0.781	0.731
NCI-H2009	0.842	0.743	0.763	0.837	0.285	0.294	0.278	0.281					0.674	0.768	0.7	0.649	0.993	1.07	0.953	1
NCI-H1703		0.24	0.26	0.253					0.155		0.113	0.103	0.389	0.557	0.389	0.553	0.835	0.853	0.991	0.661
NCI-H2023	0.218	0.237	0.23	0.236	0.525	0.532	0.555	0.473					0.471	0.564	0.518	0.422	0.716	0.732	0.651	0.631

From the supplement of paper PMC10307832
